# US20260224524A1, “A PHARMACEUTICAL COMPOSITION TARGETING MUTANT P53 AND HER2” (DR DOZO LABORATORIES, priority 2023, published 2026)
# How the values were obtained:
# Format in all cases: cell-based
# lung cancer cell = assay: Cell viability MTT assay of SACC fractions on lung cells; conditions: 24 h, read-out: inhibitory concentrations, lung cancer cell growth
# Procedure: The effect of SACC fractions (peak 2, peak 3, peak 4 and peak 5) on viability of lung cells was determined by MTT assay.
# Cells were seeded in 96 wells plate at a density of 1×10^4 per well in 200 μL of respective complete culture medium containing 10% FBS and 1% antibiotics. After 70% confluency, cells were treated with the respective doses (indicated in the graph) of SACC and its fraction in complete culture medium for 24 h. After incubation for a specified time at 37° C. in a humidified incubator, dye MTT (5 mg/mL in PBS; diluted in 10 mL of serum-free medium) was added to each well and incubated for 2 h, after which the plate was centrifuged at 1,000 rpm for 5 min at 4° C. After careful removal of the medium, 0.1 mL buffered DMSO was added to each well. The absorbance was recorded on a microplate reader at the wavelength of 540 nm. The effect SACC and its fraction on cell growth inhibition was assessed as percent cell viability, where vehicle-treated cells were taken as 100% viable.
# [1] = system: Human Breast Cancer Cell Line MDA-MB-231; assay: Growth inhibition (% control growth, LC50, TGI, GI50) MDA-MB-231
# Procedure: The therapeutic effect of […] (peak 5) and SA2 (peak 4) is evaluated against human […] cancer cell line MDA-MB-231 by calculating the percentage growth inhibition, drug concentration of test compound needed to inhibit cell growth by 50% (GI50) values.
# The therapeutic effect of SACC is evaluated against human […] cancer cell lines MDA-MB-231 by calculating the percentage growth inhibition, drug concentration of test compound needed to inhibit cell growth by 50% (GI50) values.
# [2] = system: Human Lung Cancer Cell Line A-549; assay: Growth inhibition (% control growth, LC50, TGI, GI50) A-549; conditions: A-549
# Procedure: The therapeutic effect of SA1 (peak 5) and SA2 (peak 4) is evaluated against human lung cancer cell line A-549 by calculating the percentage growth inhibition, drug concentration of test compound needed to inhibit cell growth by 50% (GI50) values.
# The therapeutic effect of SACC is evaluated against human lung cancer cell line A-549 by calculating the percentage growth inhibition, drug concentration of test compound needed to inhibit cell growth by 50% (GI50) values.
# [3] = system: Human Breast Cancer Cell Line MDA-MB-231; assay: Growth inhibition (% control growth, LC50, TGI, GI50) MDA-MB-231; conditions: Molar drug concentrations calculated from graph
# [4] = system: Human Pancreatic Cancer Cell Line Mia-Pa-Ca-2; assay: Growth inhibition (% control growth, LC50, TGI, GI50) Mia-Pa-Ca-2; conditions: Mia-Pa-Ca-2
# Procedure: The therapeutic effect of SA1 (peak 5) and SA2 (peak 4) is evaluated against human pancreatic cancer cell line Mia-Pa-Ca-2 by calculating the percentage growth inhibition, drug concentration of test compound needed to inhibit cell growth by 50% (GI50) values.
# The therapeutic effect of SACC is evaluated against human […] cancer cell line Mia-Pa-Ca-2 by calculating the percentage growth inhibition, drug concentration of test compound needed to inhibit cell growth by 50% (GI50) values.
structure (smiles),measurement,setting,value
"O=C1CC2=CC(O)=CC(=O)C2=CO1 (single isomer, unassigned) [peak 2, 6-hydroxy-3H-isochromene-3, 8(4H)-dione]",IC50,lung cancer cell,1.04 µg/mL
"Cc1ccc(O)oc1=O (single isomer, unassigned) [SA2 (peak 4), 6-hydroxy-3-methyl-2H-pyran-2-one]",% Control Growth,"[1]; 10^−4M, Average Values",27.9%
same,% Control Growth,"[1]; 10^−4M, Experiment 1",50.1%
same,% Control Growth,"[1]; 10^−4M, Experiment 2",18.1%
same,% Control Growth,"[1]; 10^−4M, Experiment 3",15.5%
same,% Control Growth,"[1]; 10^−5M, Average Values",47.2%
same,% Control Growth,"[1]; 10^−5M, Experiment 1",45.5%
same,% Control Growth,"[1]; 10^−5M, Experiment 2",42.0%
same,% Control Growth,"[1]; 10^−5M, Experiment 3",54.1%
same,% Control Growth,"[1]; 10^−6M, Average Values",62.8%
same,% Control Growth,"[1]; 10^−6M, Experiment 1",68.2%
same,% Control Growth,"[1]; 10^−6M, Experiment 2",59.7%
same,% Control Growth,"[1]; 10^−6M, Experiment 3",60.5%
same,% Control Growth,"[1]; 10^−7M, Average Values",57.0%
same,% Control Growth,"[1]; 10^−7M, Experiment 1",81.0%
same,% Control Growth,"[1]; 10^−7M, Experiment 2",42.6%
same,% Control Growth,"[1]; 10^−7M, Experiment 3",47.3%
same,GI50,"[1]; Homo sapiens, Molar drug concentrations calculated from graph",2.38 µg/mL
same,% Control Growth,"[2]; 10^−4M, Average Values",54.9%
same,% Control Growth,"[2]; 10^−4M, Experiment 1",54.4%
same,% Control Growth,"[2]; 10^−4M, Experiment 2",51.7%
same,% Control Growth,"[2]; 10^−4M, Experiment 3",58.6%
same,% Control Growth,"[2]; 10^−5M, Average Values",74.8%
same,% Control Growth,"[2]; 10^−5M, Experiment 1",81.5%
same,% Control Growth,"[2]; 10^−5M, Experiment 2",72.0%
same,% Control Growth,"[2]; 10^−5M, Experiment 3",70.9%
same,% Control Growth,"[2]; 10^−6M, Average Values",77.4%
same,% Control Growth,"[2]; 10^−6M, Experiment 1",74.0%
same,% Control Growth,"[2]; 10^−6M, Experiment 2",80.1%
same,% Control Growth,"[2]; 10^−6M, Experiment 3",78.2%
same,% Control Growth,"[2]; 10^−7M, Average Values",77.3%
same,% Control Growth,"[2]; 10^−7M, Experiment 1",80.0%
same,% Control Growth,"[2]; 10^−7M, Experiment 2",76.9%
same,% Control Growth,"[2]; 10^−7M, Experiment 3",74.9%
same,GI50,"[2]; Homo sapiens, A549, Molar drug concentrations calculated from graph",0.0034 µg/mL
same,TGI,[3],0.1727 µg/mL
same,GI50,"[4]; Homo sapiens, MIA PaCa-2, Molar drug concentrations calculated from graph",0.000301 µg/mL
same,% Control Growth,"[4]; 10^−4M, Average Values",40.5%
same,% Control Growth,"[4]; 10^−4M, Experiment 1",40.0%
same,% Control Growth,"[4]; 10^−4M, Experiment 2",36.6%
same,% Control Growth,"[4]; 10^−4M, Experiment 3",45.0%
same,% Control Growth,"[4]; 10^−5M, Average Values",100.5%
same,% Control Growth,"[4]; 10^−5M, Experiment 1",76.9%
same,% Control Growth,"[4]; 10^−5M, Experiment 2",116.3%
same,% Control Growth,"[4]; 10^−5M, Experiment 3",108.3%
same,% Control Growth,"[4]; 10^−6M, Average Values",112.4%
same,% Control Growth,"[4]; 10^−6M, Experiment 1",114.3%
same,% Control Growth,"[4]; 10^−6M, Experiment 2",115.6%
same,% Control Growth,"[4]; 10^−6M, Experiment 3",107.5%
same,% Control Growth,"[4]; 10^−7M, Average Values",102.1%
same,% Control Growth,"[4]; 10^−7M, Experiment 1",95.4%
same,% Control Growth,"[4]; 10^−7M, Experiment 2",111.8%
same,% Control Growth,"[4]; 10^−7M, Experiment 3",99.0%
same,TGI,[4]; Molar drug concentrations calculated from graph,0.1054 µg/mL
same,IC50,lung cancer cell,1.02 µg/mL
"Cc1ccc2[nH]cc(C(=O)O)c2c1 (single isomer, unassigned) [peak 3, 5-methyl-1H-indole-3-carboxylic acid]",IC50,lung cancer cell,1.06 µg/mL
